Legend:
[1] = system: human lung cancer strain NCI-H441;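 further: cell proliferation inhibition after four days measured by CellTiter-Glo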
[2] = target: GDP-bound HRAS wild-type protein (Homo sapiens, UniProt P01112); assay: Binding to HRAS by surface plasmon resonance (SPR), Single Cycle Kinetics; conditions: SPR, GDP-bound HRAS wild-type protein vs GDP-bound KRAS wild-type protein
[3] = target: GDP-bound KRAS wild-type protein (Homo sapiens, UniProt P01116); assay: Binding to KRAS by surface plasmon resonance (SPR), Single Cycle Kinetics; conditions: SPR, Single Cycle Kinetics, GDP-bound KRAS wild-type protein; read-out: KRAS KD
GDP-bound KRAS wild-type protein, sequence (P01116 whole entry): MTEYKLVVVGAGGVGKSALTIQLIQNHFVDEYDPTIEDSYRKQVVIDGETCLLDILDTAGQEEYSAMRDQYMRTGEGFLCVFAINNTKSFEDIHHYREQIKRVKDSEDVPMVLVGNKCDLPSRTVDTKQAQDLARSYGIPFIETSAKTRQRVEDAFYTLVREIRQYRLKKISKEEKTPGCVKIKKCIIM

[4] = target: GDP-bound NRAS wild-type protein (Homo sapiens, UniProt P01111); assay: Binding to NRAS by surface plasmon resonance (SPR), Single Cycle Kinetics; conditions: SPR, GDP-bound NRAS wild-type protein vs GDP-bound KRAS wild-type protein
GDP-bound NRAS wild-type protein, sequence (P01111 whole entry): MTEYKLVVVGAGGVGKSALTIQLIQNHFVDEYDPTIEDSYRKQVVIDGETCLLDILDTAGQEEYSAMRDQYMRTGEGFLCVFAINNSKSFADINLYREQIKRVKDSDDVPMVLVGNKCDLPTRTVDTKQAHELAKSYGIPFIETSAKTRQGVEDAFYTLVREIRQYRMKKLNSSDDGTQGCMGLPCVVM

GDP-bound HRAS wild-type protein, sequence (P01112 whole entry): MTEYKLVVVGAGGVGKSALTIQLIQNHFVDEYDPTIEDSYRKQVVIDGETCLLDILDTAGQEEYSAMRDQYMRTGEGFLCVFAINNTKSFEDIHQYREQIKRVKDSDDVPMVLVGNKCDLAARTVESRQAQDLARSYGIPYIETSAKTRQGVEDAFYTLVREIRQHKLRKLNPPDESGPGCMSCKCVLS

## CCC(CC)[C@H]1C(=O)N(C)[C@H](C(=O)N(C)C)CC(=O)N(C)[C@@H](CC2CC2)C(=O)N[C@@H]([C@@H](C)CC)C(=O)N(C)CC(=O)N(C)[C@H]2C/C=C\CCN(C2=O)[C@@H](CC2CCC(F)(F)CC2)C(=O)N(C)CC(=O)N[C@@H](CCc2cc(F)c(C(F)(F)F)c(F)c2)C(=O)N2C[C@@H](C)C[C@H]2C(=O)NC2(CC(C)(C)C2)C(=O)N1C [PP2500]
[1]
  IC50: 125 nM
[2]
  HRAS/KRAS (ratio of KD value for HRAS to KD value for KRAS): A (a compound having 10 or more and less than 20 is denoted as A)
[3]
  Kd: 1.7 nM
[4]
  NRAS/KRAS (ratio of KD value for NRAS to KD value for KRAS): A (a compound having 10 or more and less than 20 is denoted as A)

## CCCOC[C@H]1C(=O)N[C@@H]([C@@H](C)CC)C(=O)N(C)CC(=O)N(C)[C@H]2C/C=C\CCN(C2=O)[C@@H](CC2CCCCC2)C(=O)N(C)CC(=O)N[C@@H](CCc2cc(F)c(C(F)(F)F)c(F)c2)C(=O)N2C[C@H](OCC)C[C@H]2C(=O)NC2(CC(C)(C)C2)C(=O)N(C)[C@@H](C(CC)CC)C(=O)N(C)[C@H](C(=O)N(C)C)CC(=O)N1C [PP2501]
[1]
  IC50: 180 nM
[2]
  HRAS/KRAS (ratio of KD value for HRAS to KD value for KRAS): A (a compound having 10 or more and less than 20 is denoted as A)
[3]
  Kd: 1.8 nM
[4]
  NRAS/KRAS (ratio of KD value for NRAS to KD value for KRAS): AA (a compound having 20 or more is denoted as AA)

## CC[C@H](C)[C@@H]1NC(=O)[C@H](COC)N(C)C(=O)C[C@@H](C(=O)N(C)C)N(C)C(=O)[C@H](C2CCCC2)N(C)C(=O)C2(CC(C)(C)C2)NC(=O)[C@@H]2C[C@H](C)CN2C(=O)[C@H](CCc2ccc(C(F)(F)F)c(Cl)c2)NC(=O)CN(C)C(=O)[C@H](Cc2ccc(C)cc2)N2CC/C=C\C[C@@H](C2=O)N(C)C(=O)CN(C)C1=O [PP2502]
[1]
  IC50: 7.9 nM
[2]
  HRAS/KRAS (ratio of KD value for HRAS to KD value for KRAS): A (a compound having 10 or more and less than 20 is denoted as A)
[3]
  Kd: 0.065 nM
[4]
  NRAS/KRAS (ratio of KD value for NRAS to KD value for KRAS): A (a compound having 10 or more and less than 20 is denoted as A)

## CCOC[C@H]1C(=O)N[C@@H]([C@@H](C)CC)C(=O)N(C)CC(=O)N(C)[C@H]2C/C=C\CCN(C2=O)[C@@H](Cc2ccc(C)cc2)C(=O)N(C)CC(=O)N[C@@H](CCc2ccc(C(F)(F)F)c(OC)c2)C(=O)N2C[C@@H](C)C[C@H]2C(=O)NC2(CC(C)(C)C2)C(=O)N(C)[C@@H](C2CCCC2)C(=O)N(C)[C@H](C(=O)N(C)C)CC(=O)N1C [PP2505]
[1]
  IC50: 17.2 nM
[2]
  HRAS/KRAS (ratio of KD value for HRAS to KD value for KRAS): B (a compound having 3 or more and less than 10 is denoted as B)
[3]
  Kd: 0.13 nM
[4]
  NRAS/KRAS (ratio of KD value for NRAS to KD value for KRAS): A (a compound having 10 or more and less than 20 is denoted as A)

## CC[C@H](C)[C@@H]1NC(=O)[C@H](COC)N(C)C(=O)C[C@@H](C(=O)N(C)CC)N(C)C(=O)[C@H](C2CCCC2)N(C)C(=O)C2(CC(C)(C)C2)NC(=O)[C@@H]2C[C@H](C)CN2C(=O)[C@H](CCc2ccc(C(F)(F)F)c(Cl)c2)NC(=O)CN(C)C(=O)[C@H](Cc2ccc(C)cc2)N2CC/C=C\C[C@@H](C2=O)N(C)C(=O)CN(C)C1=O [PP2506]
[1]
  IC50: 10.6 nM
[2]
  HRAS/KRAS (ratio of KD value for HRAS to KD value for KRAS): A (a compound having 10 or more and less than 20 is denoted as A)
[3]
  Kd: 0.13 nM
[4]
  NRAS/KRAS (ratio of KD value for NRAS to KD value for KRAS): A (a compound having 10 or more and less than 20 is denoted as A)

## CCO[C@@H]1C[C@H]2C(=O)NC3(CC(C)(C)C3)C(=O)N(C)[C@@H](C3CCCC3)C(=O)N(C)[C@H](C(=O)N(C)CC)CC(=O)N(C)[C@@H](COC)C(=O)N[C@@H]([C@@H](C)CC)C(=O)N(C)CC(=O)N(C)[C@H]3C/C=C\CCN(C3=O)[C@@H](Cc3ccc(C)cc3)C(=O)N(C)CC(=O)N[C@@H](CCc3ccc(C(F)(F)F)c(Cl)c3)C(=O)N2C1 [PP2507]
[1]
  IC50: 8.9 nM
[2]
  HRAS/KRAS (ratio of KD value for HRAS to KD value for KRAS): A (a compound having 10 or more and less than 20 is denoted as A)
[3]
  Kd: 0.061 nM
[4]
  NRAS/KRAS (ratio of KD value for NRAS to KD value for KRAS): AA (a compound having 20 or more is denoted as AA)

## CCC[C@H]1C(=O)N[C@@H](CC(C)C)C(=O)N(C2CC2)CC(=O)N(C)[C@H]2C/C=C\CCN(C2=O)[C@@H](Cc2ccc(C)cc2)C(=O)N(C)CC(=O)N[C@@H](CCc2cc(F)c(C(F)(F)F)c(F)c2)C(=O)N2C[C@H](OCC)C[C@H]2C(=O)NC2(CC(C)(C)C2)C(=O)N(C)[C@@H](C2CCCC2)C(=O)N(C)[C@H](C(=O)N(C)C)CC(=O)N1C [PP2508]
[1]
  IC50: 124 nM
[2]
  HRAS/KRAS (ratio of KD value for HRAS to KD value for KRAS): B (a compound having 3 or more and less than 10 is denoted as B)
[3]
  Kd: 3.4 nM
[4]
  NRAS/KRAS (ratio of KD value for NRAS to KD value for KRAS): A (a compound having 10 or more and less than 20 is denoted as A)

## CCC[C@H]1C(=O)N[C@@H](CC(C)C)C(=O)N(C2CC2)CC(=O)N(C)[C@H]2C/C=C\CCN(C2=O)[C@@H](Cc2ccc(C)cc2)C(=O)N(C)CC(=O)N[C@@H](CCc2ccc(C(F)(F)F)c(OC)c2)C(=O)N2C[C@H](OCC)C[C@H]2C(=O)NC2(CC(C)(C)C2)C(=O)N(C)[C@@H](C2CCCC2)C(=O)N(C)[C@H](C(=O)N(C)C)CC(=O)N1C [PP2510]
[1]
  IC50: 180 nM
[2]
  HRAS/KRAS (ratio of KD value for HRAS to KD value for KRAS): B (a compound having 3 or more and less than 10 is denoted as B)
[3]
  Kd: 3.9 nM
[4]
  NRAS/KRAS (ratio of KD value for NRAS to KD value for KRAS): A (a compound having 10 or more and less than 20 is denoted as A)

## C#CCN1CC(=O)N(C)[C@H]2C/C=C\CCN(C2=O)[C@@H](Cc2ccc(C)cc2)C(=O)N(C)CC(=O)N[C@@H](CCc2cc(F)c(C(F)(F)F)c(F)c2)C(=O)N2C[C@H](OCC)C[C@H]2C(=O)NC2(CC(C)(C)C2)C(=O)N(C)[C@@H](C2CCCC2)C(=O)N(C)[C@H](C(=O)N(C)C)CC(=O)N(C)[C@@H](CCC)C(=O)N[C@@H](CC(C)C)C1=O [PP2512]
[1]
  IC50: 109 nM
[2]
  HRAS/KRAS (ratio of KD value for HRAS to KD value for KRAS): A (a compound having 10 or more and less than 20 is denoted as A)
[3]
  Kd: 2 nM
[4]
  NRAS/KRAS (ratio of KD value for NRAS to KD value for KRAS): A (a compound having 10 or more and less than 20 is denoted as A)

## CC[C@H](C)[C@@H]1NC(=O)[C@H](COC)N(C)C(=O)C[C@@H](C(=O)N(C)C)N(C)C(=O)[C@H](C2CCCC2)N(C)C(=O)C2(CC(C)(C)C2)NC(=O)[C@@H]2C[C@@H](OC(C)C)CN2C(=O)[C@H](CCc2ccc(Cl)c(Cl)c2)NC(=O)CN(C)C(=O)[C@H](CC2CCCCC2)N2CC/C=C\C[C@@H](C2=O)N(C)C(=O)CN(C2CC2)C1=O [PP2513]
[1]
  IC50: 303 nM
[2]
  HRAS/KRAS (ratio of KD value for HRAS to KD value for KRAS): A (a compound having 10 or more and less than 20 is denoted as A)
[3]
  Kd: 2.6 nM
[4]
  NRAS/KRAS (ratio of KD value for NRAS to KD value for KRAS): A (a compound having 10 or more and less than 20 is denoted as A)

## C#CCN1CC(=O)N(C)[C@H]2C/C=C\CCN(C2=O)[C@@H](Cc2ccc(C)cc2)C(=O)N(C)CC(=O)N[C@@H](CCc2ccc(C(F)(F)F)c(OC)c2)C(=O)N2C[C@H](OCC)C[C@H]2C(=O)NC2(CC(C)(C)C2)C(=O)N(C)[C@@H](C2CCCC2)C(=O)N(C)[C@H](C(=O)N(C)C)CC(=O)N(C)[C@@H](CCC)C(=O)N[C@@H](CC(C)C)C1=O [PP2514]
[1]
  IC50: 86.8 nM
[2]
  HRAS/KRAS (ratio of KD value for HRAS to KD value for KRAS): B (a compound having 3 or more and less than 10 is denoted as B)
[3]
  Kd: 2.4 nM
[4]
  NRAS/KRAS (ratio of KD value for NRAS to KD value for KRAS): A (a compound having 10 or more and less than 20 is denoted as A)

## CCC(CC)[C@H]1C(=O)N(C)[C@H](C(=O)N(C)C)CC(=O)N(C)[C@@H](COC)C(=O)N[C@@H]([C@@H](C)CC)C(=O)N(C2CC2)CC(=O)N(C)[C@H]2C/C=C\CCN(C2=O)[C@@H](CC2CCCCC2)C(=O)N(C)CC(=O)N[C@@H](CCc2cc(F)c(C(F)(F)F)c(F)c2)C(=O)N2C[C@H](OC(C)C)C[C@H]2C(=O)NC2(CC(C)(C)C2)C(=O)N1C [PP2515]
[1]
  IC50: 384 nM
[2]
  HRAS/KRAS (ratio of KD value for HRAS to KD value for KRAS): A (a compound having 10 or more and less than 20 is denoted as A)
[3]
  Kd: 5.1 nM
[4]
  NRAS/KRAS (ratio of KD value for NRAS to KD value for KRAS): A (a compound having 10 or more and less than 20 is denoted as A)

## CCC[C@H]1C(=O)N[C@@H](CC(C)C)C(=O)N(CC)CC(=O)N(C)[C@H]2C/C=C\CCN(C2=O)[C@@H](Cc2ccc(C)cc2)C(=O)N(C)CC(=O)N[C@@H](CCc2cc(F)c(C(F)(F)F)c(F)c2)C(=O)N2C[C@H](OCC)C[C@H]2C(=O)NC2(CC(C)(C)C2)C(=O)N(C)[C@@H](C2CCCC2)C(=O)N(C)[C@H](C(=O)N(C)C)CC(=O)N1C [PP2516]
[1]
  IC50: 124 nM
[2]
  HRAS/KRAS (ratio of KD value for HRAS to KD value for KRAS): B (a compound having 3 or more and less than 10 is denoted as B)
[3]
  Kd: 2.9 nM
[4]
  NRAS/KRAS (ratio of KD value for NRAS to KD value for KRAS): A (a compound having 10 or more and less than 20 is denoted as A)

## CCC[C@H]1C(=O)N[C@@H](CC(C)C)C(=O)N(CC)CC(=O)N(C)[C@H]2C/C=C\CCN(C2=O)[C@@H](Cc2ccc(C)cc2)C(=O)N(C)CC(=O)N[C@@H](CCc2ccc(C(F)(F)F)c(OC)c2)C(=O)N2C[C@H](OCC)C[C@H]2C(=O)NC2(CC(C)(C)C2)C(=O)N(C)[C@@H](C2CCCC2)C(=O)N(C)[C@H](C(=O)N(C)C)CC(=O)N1C [PP2518]
[1]
  IC50: 81.2 nM
[2]
  HRAS/KRAS (ratio of KD value for HRAS to KD value for KRAS): A (a compound having 10 or more and less than 20 is denoted as A)
[3]
  Kd: 3.3 nM
[4]
  NRAS/KRAS (ratio of KD value for NRAS to KD value for KRAS): A (a compound having 10 or more and less than 20 is denoted as A)

Reference: patent publication US20240158446A1, “CYCLIC COMPOUND HAVING SELECTIVE INHIBITORY ACTION ON KRAS OVER HRAS AND NRAS” (CHUGAI SEIYAKU KABUSHIKI KAISHA, priority 2021, published 2024)
